According to publication PMC7672604, “Design, Synthesis, Molecular Docking, Antiapoptotic and Caspase-3 Inhibition of New 1,2,3-Triazole/Bis-2(1H)-Quinolinone Hybrids” (Molecules, 2020):
Blank lines part the entries; values can stand above or below the compound they belong to.

Legend:
[1] = test system: testis of I/R rats; assay: Testicular TAC in testis of I/R rats; format: in vivo; conditions: i.p. 1 h before ischemia, dose equivalent to 30 mg NAC, mean ± S.E.M, n=6
Procedure: (§1) This section describes the methods used in the investigation of the antiapoptotic effect of the novel compounds 6a–g then supported by further histological and molecular docking studies. The antiapoptotic effect of 6a–g was evaluated through evaluation of decreasing tissue damage induced by I/R in the testis of rats in a dose equivalent to 30 mg N-acetylcysteine (NAC) as an antiapoptotic reference. The rats were subdivided into sham, I/R, NAC and treated with tested compounds groups, each group comprises of 6 rats (weighing 140–150 g). The targeted compounds 6a–g were administrated intra-peritoneal (i.p.) an hour before ischemia, which lasted for (0.5 h) then reperfusion (1 h) followed by cutting the organ (Figure 5). Different biomarkers concentrations were measured in serum to detect testis injury due to ischemia/reperfusion (I/R).
(§2) During the long testicular torsion, oxidation damage affects the testis by the production of the reactive oxygen species (ROS). Excessive generation of the ROS interacts with lipids, proteins, and nucleic acids, which has an adverse effect on cell function and damage. The testis has high cell metabolism such that excessive ROS production weakens antioxidant capacity. Malondialdehyde (MDA) is the end product of lipid peroxidation and increased MDA level has an adverse effect on sperm fertility. Furthermore, total antioxidant capacity (TAC) is the measure of the number of free radicals scavenged by a test solution, being used to evaluate the antioxidant capacity of biological samples [55]. The data collected in Table S3 (Supplementary Materials) have identified that there was a significant increase in testicular MDA with a significant decrease in testicular TAC in the I/R group as well as compounds 6d and 6f when compared to sham control and NAC groups. These findings indicate that both 6d and 6f are the worst antiapoptotic compounds compound amongst all the synthesized compounds.
TAC was assessed by the colorimetric technique using commercial kits (El-Minia, Egypt) (See Supplementary Materials). Testicular MDA, an index of lipid peroxidation, was determined by using 1,1,3,3-tetramethoxypropane as standard (See Supplementary Materials). […]
1.3.Determination of Total Antioxidant Capacity (Testicular tissue)
Free radicals or reactive oxygen species (ROS) are produced during biochemical redox reactions as part
of normal physiological cell metabolism (protection from infectious organisms) and as a response to
environmental factors such as UV light, cigarette smoke, environmental pollutants, and g-radiation. Once
formed, ROS attack cellular components causing damage to lipids, proteins, and DNA which can initiate
Antioxidants in the sample reduce dark blue-green colored ABTS radical to colorless reduced ABTS
form. The change of absorbance at 660 nm is related with total antioxidant level of the sample. The assay
is calibrated with a stable antioxidant standard solution which is traditionally named as Trolox
Equivalent that is a vitamin E analog.
The determination of the antioxidative capacity is performed by the reaction of antioxidants in the
sample with a defined amount of exogenously provide hydrogen peroxide (H2O2) The antioxidants in the
sample eliminate a certain amount of the provided hydrogen peroxide. The residual H2O2 is determined
(1 picture or pasted object on this page, not shown here)
colorimetrically by an enzymatic reaction which involves the conversion of 3,5,dichloro–2–hydroxy
benzensulphonate to a colored product.
* Dilute R11000 times immediately before use (10 μl R1 + 10 ml d. Water mix Discard after use.
*Working Reagent: mix equal volumes of R2 and R3 immediately before use.
*Dilute sample if necessary
Total Antioxidant concentration […]

[2] = test system: caspase-3; assay: Caspase-3 level in serum of testicular I/R rats (ELISA); format: in vivo; conditions: mean ± S.E.M, n=6
Procedure: as §1
Caspases can delay apoptosis, implicating a potential role in drug screening efforts. Therefore, we studied the mechanism of the caspase-3 inhibition activity. Caspase-3 was assayed in the serum of rats treated with 6a–g in comparison with sham and the NAC treated group, as shown in Table S5 (Supplementary Materials).
(§3) TNF-α was measured by ELISA kit (Elabscience, Houston, TX, USA). Caspase-3 was measured by ELISA kit Cusabio, Houston, TX, USA (See Supplementary Materials). Testosterone concentration in testicular samples was determined by the ELISA kit (“DRG”, Marburg, Germany) (See Supplementary Materials).

[3] = test system: testis of I/R rats; assay: Testicular MDA in testis of I/R rats; format: in vivo; conditions: i.p. 1 h before ischemia, dose equivalent to 30 mg NAC, mean ± S.E.M, n=6
Procedure: as §1, §2
TAC was assessed by the colorimetric technique using commercial kits (El-Minia, Egypt) (See Supplementary Materials). Testicular MDA, an index of lipid peroxidation, was determined by using 1,1,3,3-tetramethoxypropane as standard (See Supplementary Materials).

[4] = test system: testis of I/R rats; assay: Testicular testosterone in testis of I/R rats (ELISA); format: in vivo; set-up: unit not given here; conditions: i.p. 1 h before ischemia, dose equivalent to 30 mg NAC, mean ± S.E.M, n=6
Procedure: as §1
(§4) It was reported that excessive apoptosis in the testis could damage the Leydig cells and apparent decline in serum testosterone levels. Furthermore, excessive apoptosis of Leydig cells results in decreased testosterone. The assays of the apoptotic biomarkers (testicular testosterone and TNFα) were done in comparison with the sham and NAC treated group and the results were outlined in Table S4 (Supplementary Materials).
as §3
1.2.Determination of serum testosterone using ELISA kit
This ELISA kit uses the Competitive-ELISA principle. The micro ELISA plate provided in this kit has been pre-coated with T. During the reaction, T in the sample or standard competes with a fixed amount of T on the solid phase supporter for sites on the Biotinylated Detection Ab specific to T. Excess conjugate and unbound sample or standard are washed from the plate, and Avidin conjugated to Horseradish Peroxidase (HRP) are added to each microplate well and incubated. Then a TMB substrate solution is added to each well. The enzyme-substrate reaction is terminated by the addition of stop solution and the color change is measured spectrophotometrically at a wavelength of 450 nm ± 2 nm. The concentration of T in the samples is then determined by comparing the OD of the samples to the standard […]
Serum: Allow samples to clot for 2 hours at room temperature or overnight at 4℃ before centrifugation for 20 min at 1000×g at 2-8℃. Collect the supernatant to carry out the assay. Blood collection tubes should be disposable and be non-endotoxin. […]
1. Bring all reagents to room temperature (18~25℃) before use. Follow the Microplate reader manual for set-up and preheat it for 15 min before OD measurement.
2. Wash Buffer: Dilute 30 mL of Concentrated Wash Buffer with 720 mL of deionized or distilled water to prepare 750 mL of Wash Buffer. Note: if crystals have formed in the concentrate, warm it in a 40℃ water-bath and mix it gently until the crystals have completely dissolved.
3. Standard working solution: Centrifuge the standard at 10,000×g for 1min. Add 1.0mL of Reference Standard &Sample Diluent, let it stand for 10min and invert it gently several times. After it dissolves fully, mix it thoroughly with a pipette. This reconstitution produces a working solution of 20 ng/mL. Then make serial dilutions as needed. The recommended dilution gradient is as […]
Dilution method: Take 7 EP tubes, add 500uL of Reference Standard & Sample Diluent to each tube. Pipette 500uL of the 20 ng/mL working solution to the first tube and mix up to produce a 10 ng/mL working solution. Pipette 500uL of the solution from the former tube to the latter one according to this step. The illustration below is for reference. Note: the last tube is regarded as a blank. Don’t pipette solution into it from the former tube.

[5] = test system: testis of I/R rats; assay: TNFα in testis of I/R rats (ELISA); format: in vivo; conditions: i.p. 1 h before ischemia, dose equivalent to 30 mg NAC, mean ± S.E.M, n=6
Procedure: as §1, §4, §3

melting point: 300 to 302 °C
Compound: O=c1cc(OCc2cn(-c3cc(=O)[nH]c4ccccc34)nn2)c2ccccc2[nH]1 [6a, 4-((1-(2-Oxo-1,2-dihydroquinolin-4-yl)-1H-1,2,3-triazol-4-yl)methoxy)quinolin-2(1H)-one]
Testicular TAC [1]: 5.48±0.41 mmol/g tissue
Caspase-3 level [2]: 2.66 ± 0.21 ng/mL
Testicular MDA [3]: 62.38±4.23 nmol/g tissue
Testicular testosterone [4]: 4.93±0.38
TNF-α [5]: 106.40 ± 4.44 pg/mL

melting point: 298 °C
Compound: Cc1ccc2[nH]c(=O)cc(-n3cc(COc4cc(=O)[nH]c5ccccc45)nn3)c2c1 [6b, 6-Methyl-4-(4-(((2-oxo-1,2-dihydroquinolin-4-yl)oxy)methyl)-1H-1,2,3-triazol-1-yl)quinolin-2(1H)-one]
Testicular TAC [1]: 4.62±0.33 mmol/g tissue
Caspase-3 level [2]: 2.94 ± 0.28 ng/mL
Testicular MDA [3]: 61.84±4.77 nmol/g tissue
Testicular testosterone [4]: 5.07±0.45
TNF-α [5]: 107.90 ± 2.96 pg/mL
